Measured values: patent US10597388B2, “Pyridazinone herbicides” (FMC CORPORATION, priority 2014, dated 2020)

Assays:
Type in all cases: in vivo
[1] = tested on: barnyardgrass (Echinochloa crus-galli); experiment: Test A greenhouse herbicide test, pre- and postemergence
In short: (§1)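 Seeds sown in loam–sand blend got a preemergence directed soil spray of compound in non-phytotoxic solvent with surfactant. Postemergence treatment was given at 2–10 cm, one- to two-leaf stage. After ~10 d in greenhouse, injury was rated visually vs untreated controls, 0 (no effect) to 100 (complete control).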

corn (Zea mays) = experiment: as above; conditions: Postemergence
In short: as §1

[2] = tested on: foxtail, giant (giant foxtail, Setaria faberii); experiment: as above
In short: as §1

kochia (Kochia scoparia) = experiment: as above
In short: as §1

[3] = tested on: pigweed (Amaranthus retroflexus); experiment: as above
In short: as §1

[4] = tested on: ragweed (common ragweed, Ambrosia elatior); experiment: as above
In short: as §1

[5] = tested on: ryegrass, Italian (Italian ryegrass, Lolium multiflorum); experiment: as above
In short: as §1

[6] = tested on: wheat (Triticum aestivum); experiment: as above; conditions: Postemergence
In short: as §1

[7] = tested on: blackgrass (Alopecurus myosuroides); experiment: Test A greenhouse herbicide test, postemergence
In short: (§2)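 Plants grown in loam soil/sand blend pots were treated postemergence at 2 to 10 cm height, one- to two-leaf stage, with formulated test chemicals. After approximately 10 d in a greenhouse, injury was rated visually against untreated controls on a 0 to 100 scale (0 no effect, 100 complete control).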

[8] = tested on: galium (catchweed bedstraw, Galium aparine); experiment: Test A greenhouse herbicide test, postemergence
In short: as §2

[9] = tested on: barnyardgrass (Echinochloa crus-galli); experiment: Test B flooded paddy test; conditions: 250 g ai/ha, Flood; visual rating on scale of 0 to 100 where 0 is no effect and 100 is complete control; 13 to 15 d after treatment
In short: (§3)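 Plants at the 2-leaf stage were flooded to 3 cm above soil, and test compounds were applied directly into the paddy water, which was held at that depth throughout. After 13 to 15 d in a greenhouse, injury was rated visually against untreated controls on a 0–100 scale (0 no effect, 100 complete control).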

[10] = tested on: ducksalad (Heteranthera limosa); experiment: Test B flooded paddy test; conditions: 250 g ai/ha, Flood; visual rating on scale of 0 to 100 where 0 is no effect and 100 is complete control; 13 to 15 d after treatment
In short: as §3

rice (Oryza sativa) = experiment: Test B flooded paddy test; conditions: 250 g ai/ha, Flood; visual rating on scale of 0 to 100 where 0 is no effect and 100 is complete control; 13 to 15 d after treatment
In short: as §3

[11] = tested on: sedge, umbrella (small-flower umbrella sedge, Cyperus difformis); experiment: Test B flooded paddy test; conditions: 250 g ai/ha, Flood; visual rating on scale of 0 to 100 where 0 is no effect and 100 is complete control; 13 to 15 d after treatment
In short: as §3

[12] = Postemergence, 125 g ai/ha, 0 to 100 scale, 0 no effect, 100 complete control
[13] = Postemergence, 500 g ai/ha, visual rating after approx. 10 d, 0 to 100 scale (0 no effect, 100 complete control)
[14] = Preemergence, 125 g ai/ha, visual injury rating, 0 to 100 scale (0 no effect, 100 complete control), approx. 10 d
[15] = Preemergence, 500 g ai/ha, 0 to 100 scale where 0 is no effect and 100 is complete control
[16] = 125 g ai/ha, 0 to 100 scale, 0 no effect, 100 complete control
[17] = 500 g ai/ha, visual rating after approx. 10 d, 0 to 100 scale (0 no effect, 100 complete control)

Row | Structure (SMILES) | Plant response rating, Barnyardgrass [1, 12] | Plant response rating, Barnyardgrass [1, 13] | Plant response rating, Barnyardgrass [1, 14] | Plant response rating, Barnyardgrass [1, 15] | Plant response rating, Corn (corn (Zea mays); [16]) | Plant response rating, Corn (corn (Zea mays); [17]) | Plant response rating, Foxtail, Giant [2, 12] | Plant response rating, Foxtail, Giant [2, 13] | Plant response rating, Foxtail, Giant [2, 14] | Plant response rating, Foxtail, Giant [2, 15] | Plant response rating, Kochia (kochia (Kochia scoparia); [12]) | Plant response rating, Kochia (kochia (Kochia scoparia); [13]) | Plant response rating, Kochia (kochia (Kochia scoparia); [14]) | Plant response rating, Kochia (kochia (Kochia scoparia); [15]) | Plant response rating, Pigweed [3, 12] | Plant response rating, Pigweed [3, 13] | Plant response rating, Pigweed [3, 14] | Plant response rating, Pigweed [3, 15] | Plant response rating, Ragweed [4, 12] | Plant response rating, Ragweed [4, 13] | further results
1 | CCOC(=O)Oc1c(C)nn(C)c(=O)c1-c1c([N+](=O)[O-])ccc2ccccc12 [Compound 166] | 10 | 20 | 10 | 10 | 20 | 20 | 10 | 40 | 10 | 30 | 50 | 70 | 30 | 90 | 40 | 80 | 80 | 90 | 30 | 70 | Plant response rating, Ragweed [4, 14]: 70; Plant response rating, Ragweed [4, 15]: 90; Plant response rating, Ryegrass, Italian [5, 12]: 40; Plant response rating, Ryegrass, Italian [5, 13]: 90; Plant response rating, Ryegrass, Italian [5, 14]: 40; Plant response rating, Ryegrass, Italian [5, 15]: 90; Plant response rating, Wheat [6, 16]: 0; Plant response rating, Wheat [6, 17]: 20; Plant response rating, Blackgrass [7, 16]: 10; Plant response rating, Blackgrass [7, 17]: 30; Plant response rating, Galium [8, 16]: 70; Plant response rating, Galium [8, 17]: 90; Plant response rating, Barnyardgrass [9]: 0; Plant response rating, Ducksalad [10]: 0; Plant response rating, Rice (rice (Oryza sativa)): 0; Plant response rating, Sedge, Umbrella [11]: 0
2 | Cc1nn(C)c(=O)c(-c2c([N+](=O)[O-])ccc3ccccc23)c1OC(=O)C1CC1 [Compound 167] | 20 | 20 | 10 | 20 | 0 | 20 | 20 | 40 | 10 | 20 | 50 | 70 | 60 | 100 | 70 | 80 | 100 | 100 | 60 | 70 | Plant response rating, Ragweed [4, 14]: 70; Plant response rating, Ragweed [4, 15]: 80; Plant response rating, Ryegrass, Italian [5, 12]: 70; Plant response rating, Ryegrass, Italian [5, 13]: 80; Plant response rating, Ryegrass, Italian [5, 14]: 80; Plant response rating, Ryegrass, Italian [5, 15]: 100; Plant response rating, Wheat [6, 16]: 0; Plant response rating, Wheat [6, 17]: 0; Plant response rating, Blackgrass [7, 16]: 20; Plant response rating, Blackgrass [7, 17]: 40; Plant response rating, Galium [8, 16]: 70; Plant response rating, Galium [8, 17]: 90; Plant response rating, Barnyardgrass [9]: 0; Plant response rating, Ducksalad [10]: 0; Plant response rating, Rice (rice (Oryza sativa)): 0; Plant response rating, Sedge, Umbrella [11]: 0
3 | Cc1nn(Cc2ccccc2)c(=O)c(-c2cccc3ccccc23)c1O [Compound 168] | 0 | 40 | 0 | 20 | 0 | 20 | 30 | 40 | 0 | 40 | 20 | 20 | 0 | 0 | 0 | 40 | 0 | 0 | 0 | 0 | Plant response rating, Ragweed [4, 14]: 0; Plant response rating, Ragweed [4, 15]: 0; Plant response rating, Ryegrass, Italian [5, 12]: 60; Plant response rating, Ryegrass, Italian [5, 13]: 60; Plant response rating, Ryegrass, Italian [5, 14]: 0; Plant response rating, Ryegrass, Italian [5, 15]: 40; Plant response rating, Wheat [6, 16]: 0; Plant response rating, Wheat [6, 17]: 20; Plant response rating, Blackgrass [7, 16]: 20; Plant response rating, Blackgrass [7, 17]: 30; Plant response rating, Galium [8, 16]: 0; Plant response rating, Galium [8, 17]: 30; Plant response rating, Barnyardgrass [9]: 0; Plant response rating, Ducksalad [10]: 40; Plant response rating, Rice (rice (Oryza sativa)): 0; Plant response rating, Sedge, Umbrella [11]: 0
4 | Cc1n[nH]c(=O)c(-c2cccc3ccccc23)c1OCC(F)F [Compound 173] | 0 | 0 | 0 | 0 | 0 | 0 | 0 | 0 | 0 | 0 | 0 | 0 | 0 | 0 | 0 | 0 | 0 | 0 | 0 | 0 | Plant response rating, Ragweed [4, 14]: 0; Plant response rating, Ragweed [4, 15]: 0; Plant response rating, Ryegrass, Italian [5, 12]: 0; Plant response rating, Ryegrass, Italian [5, 13]: 0; Plant response rating, Ryegrass, Italian [5, 14]: 0; Plant response rating, Ryegrass, Italian [5, 15]: 0; Plant response rating, Wheat [6, 16]: 0; Plant response rating, Wheat [6, 17]: 0; Plant response rating, Blackgrass [7, 16]: 0; Plant response rating, Blackgrass [7, 17]: 0; Plant response rating, Galium [8, 16]: 0; Plant response rating, Galium [8, 17]: 0; Plant response rating, Barnyardgrass [9]: 0; Plant response rating, Ducksalad [10]: 0; Plant response rating, Rice (rice (Oryza sativa)): 0; Plant response rating, Sedge, Umbrella [11]: 0
